Results reported in patent US20250340516A1, “Isoquinolinones as Modulators of POLRMT” (Pretzel Therapeutics, Inc., priority 2024, published 2025).

These compounds were tested against POLRMT (Homo sapiens (Human), UniProt O00411) (assay: homogeneous TR-FRET assay of POLRMT inhibition (mitochondrial transcription, 407 bp RNA product)). Settings: 7.5 nM POLRMT, 15 nM TFB2M, 30 nM TFAM, 0.5 nM DNA template, 500 μM NTPs, 37° C., 60 minutes, * = aggregation of data sets, read-out: IC50 values for isoquinolinone compounds.
Type: biochemical
Method: The inhibitory activity of the compounds of the present invention against POLRMT were determined by assays based on Bergbrede, T., et al., “An adaptable high-throughput technology enabling the identification of specific transcription modulators,” SLAC Discov., 22, 378-386 (2017).
The ability of some compounds of the present invention to inhibit POLRMT were determined in a homogeneous TR-FRET Assay using high-throughput screening in a 384-well plate format. This method is used to monitor the activity of mitochondrial transcription through measurement of its product, a 407 bp long RNA transcript. Detection of the product is facilitated by hybridization of two DNA-oligonucleotide probes to specific and adjacent sequences within the RNA product sequence. Upon annealing of the probes, two fluorophores are coupled directly to an acceptor nucleotide probe (ATTO647, 5′), or introduced via a coupled streptavidin with a biotinylated donor nucleotide probe (Europium cryptate) that is brought into sufficient proximity to serve as a fluorescence-donor-acceptor pair. Thus, a FRET signal at 665 nm is generated upon excitation at 340 nm.
Proteins used as transcription factors (POLRMT: NP_005026.3, TFAM: NP_003192.1, TFB2M: NP_071761.1) are diluted from their stocks to working concentrations of 1 μM, 20 μM and 4 μM respectively, in a dilution buffer containing 20 mM Tris-HCl (pH 8.0), 200 mM NaCl, 10% (v/v) glycerol, 1 mM Dithiothreitol (DTT), 0.5 mM EDTA.
DNA template is a pUC18 plasmid with the mitochondrial light strand promotor sequence (1-477) cloned between HindIII and BamHI sites. The DNA template is restriction linearized proximal to the promotor 3′-end (pUC-LSP).
The reaction mixture (10 uL) containing 7.5 nM POLRMT, 15 nM of TFB2M, 30 nM of TFAM, 0.5 nM of DNA template and 500 μM nucleotide triphosphate mix (NTPs) in a reaction buffer (containing 10 mM Tris-HCl (pH 7.5), 10 mM MgCl2, 40 mM NaCl, 10 mM DTT, 0.005% (w/v) Tween-20, 160 units/ml Rnase inhibitor and 0.1 mg/mL BSA) are dispensed to compounds in microplates, using a Thermo Multidrop® dispenser, and incubated at 37° C. in a VWR INCU-Line incubator for 60 minutes after mixing. No nucleotide triphosphate mix is added to negative control samples. Microplates with compounds to be tested in the assay are prepared from 10 mM compound stocks in 100% DMSO, equal amounts of DMSO without any compound are added to positive control and negative control samples.
During the incubation, a mix of the detection reagents is prepared in a buffer such that the enzymatic reaction is terminated due to chelating of Mg-ions and increased ionic strength, containing 50 mM Tris-HCl (pH 7.5), 700 mM NaCl, 20 mM EDTA, and 0.01% (w/v) Tween-20. Europium-streptavidin is pre-incubated with a 200-fold molar excess of a random sequence oligonucleotide to block unspecific binding of oligo, for two hours at ambient temperature in the dark. Afterwards, the blocked Europium-streptavidin is kept on ice until use.
At the end of the enzymatic reaction time, 5 μL detection oligo mix in the detection buffer is added, and assay plates are mixed and kept at ambient temperature for one hour, protected from light. The concentration of the Acceptor nucleotide oligo (e.g., ATTO647N-5′-[…]-3′ (SEQ ID NO: 1)) and Donor nucleotide oligo (e.g., bio-5′-AACACATCTCT(-bio)GCCAAACCCCA-bio-3′ (SEQ ID NO: 2)) in each assay well is 1 nM, and 3 nM, respectively.
After incubation with oligo mix, 5 μL of pre-blocked Europium-streptavidin reagent is dispensed to each assay well, assay plates are again mixed and kept at ambient temperature for one hour, protected from light.
The generated signal is measured with BMG Pherastar microtiter plate reader with a TRF light unit, using excitation at 340 nm, an integration time of 200 μs, and a delay time of 100 μs, before detection at 620 nm and 665 nm. The ratio of donor- and acceptor-fluorescence is used as a measure of the generated transcript product (i.e. enzymatic activity).

Chain of POLRMT (O00411 42-1230): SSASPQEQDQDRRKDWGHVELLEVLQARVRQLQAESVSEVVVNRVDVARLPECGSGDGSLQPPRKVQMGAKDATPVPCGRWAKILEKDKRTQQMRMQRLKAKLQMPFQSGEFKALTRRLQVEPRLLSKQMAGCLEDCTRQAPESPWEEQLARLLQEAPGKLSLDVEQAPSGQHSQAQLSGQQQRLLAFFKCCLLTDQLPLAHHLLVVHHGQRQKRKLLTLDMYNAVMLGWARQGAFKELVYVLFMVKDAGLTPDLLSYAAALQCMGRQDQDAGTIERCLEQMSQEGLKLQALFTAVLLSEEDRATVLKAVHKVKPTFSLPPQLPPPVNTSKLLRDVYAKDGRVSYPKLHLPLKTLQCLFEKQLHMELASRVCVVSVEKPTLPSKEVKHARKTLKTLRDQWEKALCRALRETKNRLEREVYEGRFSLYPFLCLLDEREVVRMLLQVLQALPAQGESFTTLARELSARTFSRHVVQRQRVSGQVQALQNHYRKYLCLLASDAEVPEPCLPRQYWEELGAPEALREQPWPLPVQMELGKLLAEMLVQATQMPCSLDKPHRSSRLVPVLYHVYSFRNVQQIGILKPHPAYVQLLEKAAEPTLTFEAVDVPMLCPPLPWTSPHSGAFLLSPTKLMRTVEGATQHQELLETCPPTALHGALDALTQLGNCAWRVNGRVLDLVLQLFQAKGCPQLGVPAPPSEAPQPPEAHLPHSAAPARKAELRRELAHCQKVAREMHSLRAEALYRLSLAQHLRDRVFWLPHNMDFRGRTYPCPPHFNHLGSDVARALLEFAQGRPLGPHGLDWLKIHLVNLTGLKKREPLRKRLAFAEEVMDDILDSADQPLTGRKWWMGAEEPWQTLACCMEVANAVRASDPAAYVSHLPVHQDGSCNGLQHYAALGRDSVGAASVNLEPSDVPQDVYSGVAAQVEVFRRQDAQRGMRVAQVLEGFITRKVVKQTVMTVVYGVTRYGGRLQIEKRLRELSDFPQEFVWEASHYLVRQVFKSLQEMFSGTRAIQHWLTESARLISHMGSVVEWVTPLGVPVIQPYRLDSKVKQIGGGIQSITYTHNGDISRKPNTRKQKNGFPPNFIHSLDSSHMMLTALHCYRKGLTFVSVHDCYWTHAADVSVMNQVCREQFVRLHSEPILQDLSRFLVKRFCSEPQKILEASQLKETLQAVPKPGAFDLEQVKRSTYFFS

Row | Compound | IC50 [µM]
1 | Cc1ccccc1-c1c[nH]c(=O)c2cc(O[C@H](C)C(=O)NCC(N)=O)ccc12 [Example 60, (R)-N-(2-amino-2-oxoethyl)-2-((1-oxo-4-(o-tolyl)-1,2-dihydroisoquinolin-7-yl)oxy)propanamide] | 0.1
2 | Cc1ccccc1-c1c[nH]c(=O)c2cc(O[C@H](C)C(=O)N(C)CC(N)=O)ccc12 [Example 61, (R)-N-(2-amino-2-oxoethyl)-N-methyl-2-((1-oxo-4-(o-tolyl)-1,2-dihydroisoquinolin-7-yl)oxy)propanamide] | 0.1
3 | Cc1ccccc1-c1c[nH]c(=O)c2cc(O[C@H](C)C(=O)NC3(C(N)=O)CC3)ccc12 [Example 62, (R)-1-(2-((1-oxo-4-(o-tolyl)-1,2-dihydroisoquinolin-7-yl)oxy)propanamido)cyclopropane-1-carboxamide] | 0.1
4 | COCCc1ccccc1-c1c[nH]c(=O)c2cc(OCC#N)ccc12 [Example 63, 2-((4-(2-(2-methoxyethyl)phenyl)-1-oxo-1,2-dihydroisoquinolin-7-yl)oxy)acetonitrile] | > 100
5 | Cc1ccccc1-c1c[nH]c(=O)c2cc(O[C@H](C)C(=O)N3CC[C@@H](N(C)C)C3)ccc12 [Example 64, 7-(((R)-1-((R)-3-(dimethylamino)pyrrolidin-1-yl)-1-oxopropan-2-yl)oxy)-4-(0-tolyl)isoquinolin-1(2H)-one] | 0.2
6 | Cc1ccccc1-c1c[nH]c(=O)c2cc(O[C@H](C)C(=O)N3CC[C@H](N(C)C)C3)ccc12 [Example 65, 7-(((R)-1-((S)-3-(dimethylamino)pyrrolidin-1-yl)-1-oxopropan-2-yl)oxy)-4-(o-tolyl)isoquinolin-1(2H)-one] | 0.1
7 | CNC1CCN(C(=O)[C@@H](C)Oc2ccc3c(-c4ccccc4C)c[nH]c(=O)c3c2)CC1 [Example 68, (R)-7-((1-(4-(methylamino)piperidin-1-yl)-1-oxopropan-2-yl)oxy)-4-(o-tolyl)isoquinolin-1(2H)-one] | 0.2
8 | Cc1ccccc1-c1c[nH]c(=O)c2cc(N(C)CC(=O)N[C@H](C)C(N)=O)ccc12 [Example 69, (R)-2-(2-(methyl(1-oxo-4-(o-tolyl)-1,2-dihydroisoquinolin-7-yl)amino)acetamido)propanamide] | 3
9 | Cc1c(F)cccc1-c1c[nH]c(=O)c2cc(N(C)CC(=O)NCCO)ccc12 [Example 70, 2-((4-(3-fluoro-2-methylphenyl)-1-oxo-1,2-dihydroisoquinolin-7-yl)(methyl)amino)-N-(2-hydroxyethyl)acetamide] | 1
10 | Cc1cccc(CO)c1-c1c[nH]c(=O)c2cc(OCC(F)(F)F)ccc12 [Example 71, 4-(2-(hydroxymethyl)-6-methylphenyl)-7-(2,2,2-trifluoroethoxy)isoquinolin-1(2H)-one] | 0.08
11 | Cc1cccc(CO)c1-c1c[nH]c(=O)c2cc(OCC(F)F)ccc12 [Example 72, 7-(2,2-difluoroethoxy)-4-(2-(hydroxymethyl)-6-methylphenyl)isoquinolin-1(2H)-one] | 0.1
12 | Cc1ccccc1-c1c[nH]c(=O)c2cc(O[C@H](C)C(=O)N[C@@H](C)C(N)=O)ccc12 [Example 73, (R)-N-((S)-1-amino-1-oxopropan-2-yl)-2-((1-oxo-4-(o-tolyl)-1,2-dihydroisoquinolin-7-yl)oxy)propanamide] | 0.1
13 | [2H]C([2H])([2H])c1ccccc1-c1c[nH]c(=O)c2cc(O[C@H](C)C(=O)N3CCN(C(N)=O)CC3)ccc12 [Example 74, (R)-4-(2-((4-(2-(methyl-d3)phenyl)-1-oxo-1,2-dihydroisoquinolin-7-yl)oxy)propanoyl)piperazine-1-carboxamide] | 0.08
14 | CCNC1CCN(C(=O)[C@@H](C)Oc2ccc3c(-c4ccccc4C)c[nH]c(=O)c3c2)CC1 [Example 77, (R)-7-((1-(4-(ethylamino)piperidin-1-yl)-1-oxopropan-2-yl)oxy)-4-(o-tolyl)isoquinolin-1(2H)-one] | 1
15 | Cc1ccccc1-c1c[nH]c(=O)c2cc(O[C@H](C)C(=O)N(C)CC(=O)O)ccc12 [Example 78, (R)-N-methyl-N-(2-((1-oxo-4-(o-tolyl)-1,2-dihydroisoquinolin-7-yl)oxy)propanoyl)glycine] | 1
